Legend:
TRPV1 receptor = target: T1, TRPV1 receptor (Rattus norvegicus, UniProt O35433); experiment: Test of inhibition of the current induced with capsaicin on rat DRGs (whole-cell patch-clamp); format: cell-based; conditions: capsaicin response 300 nM, rat DRG neurons
T1 construct: The neurons of the DRG naturally express the TRPV1 receptor; endogenous in cells; host or cells: primary culture of newborn rat dorsal root ganglion neurons
Procedure: Test of Inhibition of the Current Induced with Capsaicin on rat DRGs
• Primary culture of rat dorsal root ganglion (DRG) cells:
The neurons of the DRG naturally express the TRPV1 receptor.
The primary cultures of newborn rat DRGs are prepared using 1-day-old rats. Briefly, after dissection, the ganglions are trypsinized and the cells dissociated by mechanical trituration. The cells are resuspended in an Eagle basal culture medium containing 10% fetal calf serum, 25 mM KCl, 2 mM glutamine, 100 μg/ml gentamicin and 50 ng/ml of NGF, and then deposited on glass slides coated with laminin (0.25×10^6 cells per slide), which are then placed in Corning 12-well dishes. The cells are incubated at 37° C. in a humidified atmosphere containing 5% CO2 and 95% air. Cytosine β-D-arabinoside (1 μM) is added 48 hours after culturing, to prevent the growth of non-neuronal cells. The slides are transferred into experimental chambers for the patch-clamp studies after 7-10 days of culturing.
The measuring chambers (volume 800 μl) containing the cell preparation are placed on the platform of an inverted microscope (Olympus IMT2) equipped with Hoffman optics (Modulation Contrast, New York) and observed at a magnification of 400×. The chambers are continuously gravity-influxed (2.5 ml/min) using a solution distributor accepting 8 inlets and whose sole outlet, consisting of a polyethylene tube (aperture 500 μm), is placed less than 3 mm from the cell under study. The “whole cell” configuration of the patch-clamp technique was used. […] The overall currents (membrane potential set at […]) are recorded with an Axopatch 1 D amplifier (Axon Instruments, Foster city, Calif.), connected to a PC running the Pclamp8 software (Axon Instrument). The current plots are recorded on paper and simultaneously digitized (sampling frequency 15 to 25 Hz) and acquired on the hard drive of the PC.
The application of a 300 nM capsaicin solution induces on the DRG cells (voltage set at −70 mV) an entering cationic current. […] The results are expressed as a percentage of inhibition of the control capsaicin response.

TRPV1 receptors = target: T2, TRPV1 receptors (Mus musculus, UniProt Q704Y3); experiment: Test of mouse corneal irritation (capsaicin ocular instillation); format: in vivo; conditions: 1 mg/kg po, pretreatment time t = 1 h, n = 8, 2 μl of 160 μM capsaicin
T2 construct: from tissue; host or cells: living mouse, cornea (capsaicin ocular instillation)
Procedure: Test of Mouse Corneal Irritation
The irritant nature of capsaicin is readily assessed on the cornea since this organ is one of the organs most densely innervated with C fibres. In this context, from preliminary experiments, the application of a very small amount of capsaicin (2 μl at a concentration of 160 μM) to the surface of the cornea of an animal leads to a certain number of stereotypic behavioral traits associated with irritation, which are easy to detect. Among these, the following are noted: blinking of the eye, rubbing of the instilled eye with the ipsilateral front paw, rubbing of the face with both front paws, scratching of the ipsilateral face with the hind paw. […] This aspect is moreover also normal. […]
In practice, the test product is administered orally and, with a delay (pretreatment time: t) that depends on the pharmacokinetic data, the animal receives an ocular instillation of 2 μl of a 160 μM capsaicin solution prepared as indicated above. During a 2-minute observation following the instillation, the number of times the instilled eye is rubbed with the ipsilateral front paw is recorded.
For a given animal, the percentage of protection is calculated as follows: P=100−((number of scratching actions observed/mean number of scratching actions for the group treated with the solvent)×100) […]

T2 sequence (Q704Y3 whole entry): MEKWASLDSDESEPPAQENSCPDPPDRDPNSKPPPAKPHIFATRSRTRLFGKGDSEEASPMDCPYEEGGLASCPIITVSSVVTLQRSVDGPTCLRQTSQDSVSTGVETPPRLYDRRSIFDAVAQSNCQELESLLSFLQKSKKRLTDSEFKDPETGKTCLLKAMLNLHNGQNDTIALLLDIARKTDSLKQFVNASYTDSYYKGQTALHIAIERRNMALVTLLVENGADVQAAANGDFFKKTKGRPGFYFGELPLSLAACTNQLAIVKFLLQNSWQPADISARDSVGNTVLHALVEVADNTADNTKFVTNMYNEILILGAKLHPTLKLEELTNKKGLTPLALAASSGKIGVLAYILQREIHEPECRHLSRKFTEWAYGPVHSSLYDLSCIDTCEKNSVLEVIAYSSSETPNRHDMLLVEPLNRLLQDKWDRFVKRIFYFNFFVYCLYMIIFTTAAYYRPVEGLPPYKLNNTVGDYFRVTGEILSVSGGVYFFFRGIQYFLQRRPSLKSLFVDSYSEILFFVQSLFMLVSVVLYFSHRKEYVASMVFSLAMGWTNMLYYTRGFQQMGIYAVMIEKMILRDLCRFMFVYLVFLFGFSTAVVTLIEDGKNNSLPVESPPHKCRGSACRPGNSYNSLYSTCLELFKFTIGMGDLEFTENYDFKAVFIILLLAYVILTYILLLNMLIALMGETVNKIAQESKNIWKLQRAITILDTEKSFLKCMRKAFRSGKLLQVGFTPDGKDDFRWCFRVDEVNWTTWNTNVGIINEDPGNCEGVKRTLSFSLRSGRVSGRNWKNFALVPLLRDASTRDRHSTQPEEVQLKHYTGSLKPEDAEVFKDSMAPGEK
T1 sequence (O35433 whole entry): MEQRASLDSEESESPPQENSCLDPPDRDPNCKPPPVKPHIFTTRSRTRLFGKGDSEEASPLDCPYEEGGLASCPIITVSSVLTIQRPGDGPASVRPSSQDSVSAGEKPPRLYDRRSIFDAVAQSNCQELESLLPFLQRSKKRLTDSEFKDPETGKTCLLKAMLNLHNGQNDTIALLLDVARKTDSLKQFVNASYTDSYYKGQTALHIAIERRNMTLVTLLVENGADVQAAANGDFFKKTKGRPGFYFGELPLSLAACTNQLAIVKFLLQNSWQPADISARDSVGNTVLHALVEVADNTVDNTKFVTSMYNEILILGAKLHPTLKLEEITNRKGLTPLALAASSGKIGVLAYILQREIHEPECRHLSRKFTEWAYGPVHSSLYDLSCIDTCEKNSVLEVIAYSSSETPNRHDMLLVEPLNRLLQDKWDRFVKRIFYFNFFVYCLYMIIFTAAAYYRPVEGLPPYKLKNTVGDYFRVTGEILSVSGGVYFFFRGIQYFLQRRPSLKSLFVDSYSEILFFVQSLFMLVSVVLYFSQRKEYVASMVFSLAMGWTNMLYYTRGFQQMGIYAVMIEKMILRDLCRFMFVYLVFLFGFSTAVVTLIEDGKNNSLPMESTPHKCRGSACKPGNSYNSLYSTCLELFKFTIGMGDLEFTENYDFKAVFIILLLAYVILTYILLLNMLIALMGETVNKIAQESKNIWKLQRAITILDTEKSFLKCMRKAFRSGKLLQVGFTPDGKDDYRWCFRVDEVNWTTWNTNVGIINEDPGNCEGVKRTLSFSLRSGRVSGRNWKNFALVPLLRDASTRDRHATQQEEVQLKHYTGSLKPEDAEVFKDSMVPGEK

| Compound | % inhibition in DRG patch (TRPV1 receptor; compound 1 nM) | % P (percentage of protection) (TRPV1 receptors) | inhibition at 0.01 µM (TRPV1 receptor; DRG neuron, compound 10 nM) |
| --- | --- | --- | --- |
| O=C1CCc2ccc(NC(=O)c3cc4cc(F)ccc4n3Cc3cccc(F)c3)cc2N1 [Compound 20, N-(1H-2-oxo-3,4-dihydroquinol-7-yl)-5-fluoro-1-[(3-fluorophenyl)methyl]-1H-indole-2-carboxamide] | 45% (1 nM) | 26% - (1 h) |  |
| O=C(Nc1ccc2c(c1)NCCC2)c1cc2cc(F)ccc2n1Cc1cccc(F)c1 [Compound 14, N-(1,2,3,4-tetrahydroquinol-7-yl)-5-fluoro-1-[(3-fluorophenyl)methyl]-1H-indole-2-carboxamide] |  | 46% - (1 h) | 38% |

Reference: patent US7557134B2, “N-(heteroaryl)-1H-indole-2-carboxamide derivatives and their use as vanilloid TRPV1 receptor ligands” (Sanofi-Aventis, priority 2005, dated 2009)
